Results taken from PMC9917550, “Discovery of Novel Thiazolidinedione-Derivatives with Multi-Modal Antidiabetic Activities In Vitro and In Silico” (International Journal of Molecular Sciences, 2023).

Key:
α-glucosidase [1] = biological target: T1, α-glucosidase (Saccharomyces cerevisiae, UniProt P53341); assay type: biochemical
α-amylase = biological target: T2, α-amylase (Sus scrofa, UniProt P00690); test: α-amylase inhibition assay; assay type: biochemical; details: 10-50 µg/mL, versus control, p < 0.05
T2 sequence (P00690 16-511): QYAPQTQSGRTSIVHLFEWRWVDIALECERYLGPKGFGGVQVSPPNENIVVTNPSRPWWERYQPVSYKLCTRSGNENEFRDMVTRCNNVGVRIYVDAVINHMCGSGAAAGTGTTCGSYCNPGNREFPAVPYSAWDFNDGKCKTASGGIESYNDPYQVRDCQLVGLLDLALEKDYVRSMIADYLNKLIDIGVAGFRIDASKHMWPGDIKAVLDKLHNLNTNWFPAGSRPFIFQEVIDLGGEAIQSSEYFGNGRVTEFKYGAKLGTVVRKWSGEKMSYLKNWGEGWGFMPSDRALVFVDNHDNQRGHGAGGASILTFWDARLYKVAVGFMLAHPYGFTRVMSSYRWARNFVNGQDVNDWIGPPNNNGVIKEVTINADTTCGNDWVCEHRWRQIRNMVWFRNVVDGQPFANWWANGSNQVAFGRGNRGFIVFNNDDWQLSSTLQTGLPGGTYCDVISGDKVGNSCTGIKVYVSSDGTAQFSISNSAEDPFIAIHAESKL
Method: The α-amylase inhibitory activity was determined using the method described by the Worthington Enzyme Manual with slight modifications. The TZD derivatives were assayed at 10, 20, 30, 40, and 50 µg/mL. […] The sodium phosphate buffer was used as a blank. The inhibitory activity was calculated according to the equation:
Inhibition (%) = ((Acontrol − Asample)/Acontrol) × 100%, where Acontrol was the absorbance of the control (without the inhibitor); Asample was the absorbance in the presence of TZD derivatives.

aldose reductase = aldose reductase (Homo sapiens, UniProt P15121); test: Aldose reductase inhibition assay; assay type: biochemical; details: for IC50: read-out: IC50 for the Inhibitory Activity Assays, AR (converted); for aldose reductase inhibitory activity (in words): 10-50 µg/mL, versus control, p < 0.05
Method: The aldose reductase (AR) inhibition assay was performed according to the method described by Kazeem et al. with minor modifications. All the TZD derivatives were assayed at 10, 20, 30, 40, and 50 µg/mL. […] The absolute standard contained all the reagents used except for the inhibitor compounds. The aldose reductase inhibition activity was calculated as a percentage inhibition from:
(§1) % Inhibition = [(∆Abscontrol − ∆Abssample)/∆Abscontrol] × 100%, where ∆Abs is the change is absorbance.

[2] = biological target: T3, protein tyrosine phosphatase-1B (PTP-1B) (Homo sapiens, UniProt P18031); test: Protein tyrosine phosphatase-1B inhibition assay; assay type: biochemical; details: for PTP-1B inhibitory activity (in words): 10-50 µg/mL, versus control; for IC50: read-out: IC50 for the Inhibitory Activity Assays, PTP-1B (converted)
T3 sequence (P18031 1-435): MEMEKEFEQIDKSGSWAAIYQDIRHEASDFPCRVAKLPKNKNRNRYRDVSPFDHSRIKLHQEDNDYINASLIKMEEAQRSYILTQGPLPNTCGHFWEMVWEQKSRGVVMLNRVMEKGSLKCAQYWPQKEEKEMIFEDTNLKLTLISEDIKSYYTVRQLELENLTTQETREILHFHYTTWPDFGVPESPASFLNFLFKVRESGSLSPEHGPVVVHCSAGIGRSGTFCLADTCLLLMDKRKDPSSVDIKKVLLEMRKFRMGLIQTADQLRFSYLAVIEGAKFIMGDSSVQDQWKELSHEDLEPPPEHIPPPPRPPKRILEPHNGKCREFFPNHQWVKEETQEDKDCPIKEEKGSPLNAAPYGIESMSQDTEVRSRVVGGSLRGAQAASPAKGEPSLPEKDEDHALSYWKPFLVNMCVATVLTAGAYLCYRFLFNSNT
Method: The protein tyrosine phosphatase-1B (PTP-1B) inhibition assay was performed according to the method described by Song et al. with some modifications. […] The absolute control contained all the reagents used except the inhibitor compounds. The inhibition activity was calculated using:
as §1

DPP-4 = biological target: T4, DPP-4 (Homo sapiens, UniProt P27487); test: Dipeptidyl peptidase-4 inhibition assay (DPP-4 Inhibitor Screening Kit); assay type: biochemical; details: for DPP-4 inhibition: 10, 20, 30, 40 and 50 µg/mL; for IC50: read-out: IC50 for the Inhibitory Activity Assays, DPP-4 (converted); for DPP-4 inhibitory activity (in words): 10-50 µg/mL, versus control
T4 construct: purchased Sigma-Aldrich MAK203
Method: This assay was performed according to the DPP-4 Inhibitor Screening Kit (catalogue number: MAK203) product information (Sigma-Aldrich.com) with minor modifications to the volumes to suit the 96-well plate assay.

α-glucosidase [3] = biological target: T1, α-glucosidase; test: Mode of inhibition of α-glucosidase (Michaelis-Menten, Lineweaver-Burk); assay type: biochemical; details: substrate pNPG
Method: The Ki values were calculated with GraphPad Prism 9.2.0. (332) by plotting the reciprocal of maximum velocity (1/Vmax) (y-axis) against the derivative concentrations (x-axis). The types of inhibition parameters were all calculated with GraphPad Prism 9.2.0. Briefly, 30 µL of α-glucosidase enzyme (0.5 IU/mL) was dissolved in the 0.02 M phosphate buffer (pH 6.9), and then was pre-incubated at 37 °C with the above-mentioned derivative (50 µL) in a 96-well plate, for 5 min. In sequence, pNPG (0.125, 0.250, 0.500, 0.750, 1.000, 1.500, 2.000, 2.500, and 5.000 mM) was added and incubated in the reaction mixture at 37 °C for 30 min.

liver cells (HEP-G2) = test: Glucose uptake in liver cells; assay type: cell-based; details: 25, 50 and 100 µg/mL, 24 h, versus control
Method: HEPG-2 liver cells were cultured in MEME supplemented with pen/strep (1%) and FBS (10%) in a […] under tissue culture conditions. Upon confluency (80%), cells were trypsinized and seeded into the 96-well plates. Upon confluency, the cell preparations were exposed to different concentrations (25, 50, and 100 µg/mL) of TZDDs, and a media glucose reading was taken before incubation (time = 0). Thereafter, the plates containing cells and treatments were incubated for 24 h under tissue culture conditions. The non-treated cells and insulin treated cells served as absolute and positive controls, respectively. After a 24 h incubation, the medium glucose was taken using a glucometer. The percentage glucose uptake was calculated as follows:
Glucose uptake (%) = (T24/T0) × 100

T4 sequence (P27487 whole entry, species assumed): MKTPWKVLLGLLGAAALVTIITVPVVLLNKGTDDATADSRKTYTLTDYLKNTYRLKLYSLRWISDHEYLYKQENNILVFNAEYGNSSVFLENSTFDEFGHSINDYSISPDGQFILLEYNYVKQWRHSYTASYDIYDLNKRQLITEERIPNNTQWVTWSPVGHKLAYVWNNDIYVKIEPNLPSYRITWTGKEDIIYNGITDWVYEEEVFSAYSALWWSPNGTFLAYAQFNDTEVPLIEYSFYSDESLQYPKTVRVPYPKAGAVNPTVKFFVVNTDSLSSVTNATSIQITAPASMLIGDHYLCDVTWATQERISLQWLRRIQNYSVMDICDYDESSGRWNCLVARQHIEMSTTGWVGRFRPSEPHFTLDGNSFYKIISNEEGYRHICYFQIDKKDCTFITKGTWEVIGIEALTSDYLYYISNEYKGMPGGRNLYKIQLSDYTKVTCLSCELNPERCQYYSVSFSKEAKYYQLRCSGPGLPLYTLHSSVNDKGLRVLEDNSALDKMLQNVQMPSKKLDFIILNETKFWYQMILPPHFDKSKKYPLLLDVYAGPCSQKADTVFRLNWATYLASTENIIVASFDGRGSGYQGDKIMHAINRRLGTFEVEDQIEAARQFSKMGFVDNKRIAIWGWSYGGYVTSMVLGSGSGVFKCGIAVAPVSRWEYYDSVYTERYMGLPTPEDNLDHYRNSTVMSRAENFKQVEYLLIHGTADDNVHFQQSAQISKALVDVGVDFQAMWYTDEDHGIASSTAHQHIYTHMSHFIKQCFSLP
T1 sequence (P53341 whole entry): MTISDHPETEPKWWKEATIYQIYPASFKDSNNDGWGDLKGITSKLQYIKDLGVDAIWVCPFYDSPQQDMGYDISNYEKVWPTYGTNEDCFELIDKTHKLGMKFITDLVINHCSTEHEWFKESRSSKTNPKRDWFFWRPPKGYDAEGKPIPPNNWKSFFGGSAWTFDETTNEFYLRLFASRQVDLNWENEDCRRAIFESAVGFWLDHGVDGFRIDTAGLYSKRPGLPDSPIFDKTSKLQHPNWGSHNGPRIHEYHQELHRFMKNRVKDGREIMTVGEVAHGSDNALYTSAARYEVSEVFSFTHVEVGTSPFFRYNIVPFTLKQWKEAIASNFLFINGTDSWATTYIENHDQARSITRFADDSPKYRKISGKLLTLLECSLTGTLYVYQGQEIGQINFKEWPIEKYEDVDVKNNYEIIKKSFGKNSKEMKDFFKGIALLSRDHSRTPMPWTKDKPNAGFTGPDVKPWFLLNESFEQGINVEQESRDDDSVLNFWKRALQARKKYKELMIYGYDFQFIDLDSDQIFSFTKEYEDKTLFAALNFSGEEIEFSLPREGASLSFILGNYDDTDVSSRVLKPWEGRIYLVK

Compound | α-glucosidase inhibitory activity (in words) (α-glucosidase [1]) | α-amylase inhibitory activity (in words) (α-amylase) | IC50 (aldose reductase) [µM] | PTP-1B inhibitory activity (in words) [2] | IC50 [2] [µM] | DPP-4 inhibition (DPP-4) [%] | IC50 (DPP-4) [µM] | aldose reductase inhibitory activity (in words) (aldose reductase) | Vmax (α-glucosidase [3]; TZDD3 at 60 µg/mL) | Vmax (α-glucosidase [3]; TZDD3 at 120 µg/mL) | IC50 for the Inhibitory Activity Assays, PTP-1B [2] | DPP-4 inhibitory activity (in words) (DPP-4) | Effect on glucose uptake (liver cells (HEP-G2))
C[C@H]1O[C@H](O[C@H]2[C@H](O)[C@@H](O)[C@@H](O[C@H]3[C@H](O)[C@@H](O)C(O)O[C@@H]3CO)O[C@@H]2CO)[C@H](O)[C@@H](O)[C@@H]1N[C@H]1C=C(CO)[C@@H](O)[C@H](O)[C@H]1O (stereo partly drawn) [Acarbose, reference compound] | significant (p < 0.05) inhibitory activity | significant (p < 0.05) inhibitory activity | – | – | – | – | – | – | – | – | – | – | –
Cc1cc(/C=C2/S/C(=N\c3ccccc3)NC2=O)c(C)n1-c1ccccc1 [TZDD4, (2Z,5E)-5-((2,5-dimethyl-1-phenyl-1H-pyrrol-3-yl)methylene)-2-(phenylimino)thiazolidin-4-one] | – | showed inhibitory activity | 98.5 | weak inhibitory activity | 693 | ≥ 20 | 192 | – | – | – | – | – | –
Cc1cc(/C=C2\SC(=O)N(CC(=O)O)C2=O)c(C)n1-c1ccccc1 [TZDD3, (Z)-2-(5-((2,5-Dimethyl-1-phenyl-1H-pyrrol-3-yl)methylene)-2,4-dioxothiazolidin-3-yl)acetic Acid] | – | concentration-dependent inhibitory activity | 161 | – | – | – | 213 | decreasing inhibition activity | 59.43 | 32.76 | unstable | very weak inhibitory activity | –
COc1cc(OC)c(/C=C2/SC(=O)N(CC(=O)N3CCN(c4ccccc4)CC3)C2=O)c(OC)c1 [TZDD1, (E)-5-(2,4,6-trimethoxybenzylidene)-3-(2-oxo-2-(4-phenylpiperazin-1-yl)ethyl)thiazolidine-2,4-dione] | – | showed inhibitory activity | 55.3 | weak inhibitory activity | – | – | 147 | concentration-dependent inhibitory activity | – | – | unstable | very weak inhibitory activity | –
O=c1c(O)c(-c2ccc(O)c(O)c2)oc2cc(O)cc(O)c12 [Quercetin, reference compound] | – | – | – | – | – | – | – | significant (p < 0.05) inhibitory activity | – | – | – | – | –
Cc1cc(/C=C2\SC(=O)N(CC(=O)N3CCCC3)C2=O)c(C)n1-c1ccccc1 [TZDD2, (Z)-5-((2,5-Dimethyl-1phenyl-1H-pyrrol-3-yl)methylene)-3-(2-oxo-2-(pyrrolidin-1-yl)ethyl)thiazolidine-2,4-dione] | – | showed inhibitory activity | 201 | weak inhibitory activity | 334 | ≥ 20 | 78 | – | – | – | – | relatively higher activity | increase glucose uptake
insulin | – | – | – | – | – | – | – | – | – | – | – | – | enhanced glucose uptake
